Measurements from ChEMBL document CHEMBL1201862, “PubChem BioAssay data set” (2004).
“And” between values parts separate entries of the source, which are not always exact repeats. Equal values may be shown once. “Also recorded” adds a separate entry of the source. The source made the active and inactive calls.

What was measured:
[1] = molecular target: Cytochrome P450 3A4 (Homo sapiens, UniProt P08684);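 further: CYP3A4 tested as one member of a cytochrome P450 panel screen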
[2] = molecular target: T1, Short transient receptor potential channel 4 (Mus musculus, UniProt Q9QUQ5); assay: mouse TRPC4 channel inhibitors, dose response, cell-based, HEK293 TRPC4/mu-opioid, Fluo-4 calcium (AID 434942); type: functional;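 further: potency of inhibitors blocking the TRPC4 calcium response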
T1 sequence (Q9QUQ5 whole entry): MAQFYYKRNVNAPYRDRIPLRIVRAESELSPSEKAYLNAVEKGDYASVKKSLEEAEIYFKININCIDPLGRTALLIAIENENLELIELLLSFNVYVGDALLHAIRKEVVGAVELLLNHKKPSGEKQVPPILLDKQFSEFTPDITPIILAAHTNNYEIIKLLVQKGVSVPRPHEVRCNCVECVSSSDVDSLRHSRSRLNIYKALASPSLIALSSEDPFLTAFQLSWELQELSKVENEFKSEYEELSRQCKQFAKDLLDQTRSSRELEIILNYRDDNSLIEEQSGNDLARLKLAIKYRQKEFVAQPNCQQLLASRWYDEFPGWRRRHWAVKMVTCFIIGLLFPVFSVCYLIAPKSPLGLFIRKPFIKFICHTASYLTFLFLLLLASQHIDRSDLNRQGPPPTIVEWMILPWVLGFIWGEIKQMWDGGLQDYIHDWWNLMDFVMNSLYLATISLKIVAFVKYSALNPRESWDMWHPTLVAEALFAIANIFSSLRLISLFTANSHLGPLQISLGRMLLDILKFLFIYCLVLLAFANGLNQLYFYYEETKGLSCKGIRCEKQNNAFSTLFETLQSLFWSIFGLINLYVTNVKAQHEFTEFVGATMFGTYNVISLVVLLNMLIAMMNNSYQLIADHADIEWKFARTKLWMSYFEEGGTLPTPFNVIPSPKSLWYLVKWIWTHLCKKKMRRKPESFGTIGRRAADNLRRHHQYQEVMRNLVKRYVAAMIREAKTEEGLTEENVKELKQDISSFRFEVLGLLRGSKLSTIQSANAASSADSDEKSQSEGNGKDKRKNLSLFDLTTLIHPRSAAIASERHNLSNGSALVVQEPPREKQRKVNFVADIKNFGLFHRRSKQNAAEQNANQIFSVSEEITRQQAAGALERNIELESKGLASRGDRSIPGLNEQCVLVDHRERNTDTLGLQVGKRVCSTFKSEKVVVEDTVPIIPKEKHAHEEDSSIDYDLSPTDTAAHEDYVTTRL

[3] = molecular target: T2, High affinity choline transporter 1 (Homo sapiens, UniProt Q9GZV3); assay: CHT inhibitors, dose response, cell-based, 5-point CRC, membrane potential dye (AID 504840); type: functional
T2 sequence (Q9GZV3 whole entry): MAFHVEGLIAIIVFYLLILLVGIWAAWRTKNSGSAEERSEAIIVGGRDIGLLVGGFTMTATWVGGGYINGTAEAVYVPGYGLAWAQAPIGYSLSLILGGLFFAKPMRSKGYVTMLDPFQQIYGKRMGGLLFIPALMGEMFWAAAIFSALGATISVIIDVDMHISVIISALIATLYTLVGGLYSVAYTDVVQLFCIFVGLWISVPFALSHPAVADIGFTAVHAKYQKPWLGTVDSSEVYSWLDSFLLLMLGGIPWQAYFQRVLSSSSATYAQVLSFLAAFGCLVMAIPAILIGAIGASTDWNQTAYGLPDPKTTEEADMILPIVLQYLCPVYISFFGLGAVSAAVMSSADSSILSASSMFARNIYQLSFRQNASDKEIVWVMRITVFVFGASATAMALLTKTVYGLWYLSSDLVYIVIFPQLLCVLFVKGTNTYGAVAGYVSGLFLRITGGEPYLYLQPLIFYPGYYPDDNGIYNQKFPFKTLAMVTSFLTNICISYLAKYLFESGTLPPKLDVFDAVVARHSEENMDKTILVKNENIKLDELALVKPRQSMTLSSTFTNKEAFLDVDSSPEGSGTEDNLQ

[4] = molecular target: Cytochrome P450 2C19 (Homo sapiens, UniProt P33261); assay: Cytochrome panel assay with activity outcomes. Panel member name: p450-cyp2c19 Compounds with AC50 equal or less than 10 uM are considered active; type: functional
Chain of Cytochrome P450 2C19 (P33261 whole entry): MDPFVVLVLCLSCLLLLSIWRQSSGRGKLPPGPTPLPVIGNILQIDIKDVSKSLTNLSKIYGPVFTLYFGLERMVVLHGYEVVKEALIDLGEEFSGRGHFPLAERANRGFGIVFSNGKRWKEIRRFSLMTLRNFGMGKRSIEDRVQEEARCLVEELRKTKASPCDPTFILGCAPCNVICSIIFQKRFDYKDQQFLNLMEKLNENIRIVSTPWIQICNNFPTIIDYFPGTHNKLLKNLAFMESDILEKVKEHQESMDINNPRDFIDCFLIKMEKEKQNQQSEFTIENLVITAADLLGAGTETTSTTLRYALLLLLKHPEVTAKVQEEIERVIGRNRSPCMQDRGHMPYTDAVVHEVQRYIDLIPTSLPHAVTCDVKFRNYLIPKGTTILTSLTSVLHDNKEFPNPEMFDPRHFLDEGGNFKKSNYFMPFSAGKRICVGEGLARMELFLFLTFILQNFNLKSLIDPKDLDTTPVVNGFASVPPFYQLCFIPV

[5] = molecular target: T3, Cytochrome P450 1A2 (Homo sapiens, UniProt P05177);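 further: PubChem cytochrome P450 panel assay, CYP1A2 panel member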
T3 sequence (P05177 whole entry): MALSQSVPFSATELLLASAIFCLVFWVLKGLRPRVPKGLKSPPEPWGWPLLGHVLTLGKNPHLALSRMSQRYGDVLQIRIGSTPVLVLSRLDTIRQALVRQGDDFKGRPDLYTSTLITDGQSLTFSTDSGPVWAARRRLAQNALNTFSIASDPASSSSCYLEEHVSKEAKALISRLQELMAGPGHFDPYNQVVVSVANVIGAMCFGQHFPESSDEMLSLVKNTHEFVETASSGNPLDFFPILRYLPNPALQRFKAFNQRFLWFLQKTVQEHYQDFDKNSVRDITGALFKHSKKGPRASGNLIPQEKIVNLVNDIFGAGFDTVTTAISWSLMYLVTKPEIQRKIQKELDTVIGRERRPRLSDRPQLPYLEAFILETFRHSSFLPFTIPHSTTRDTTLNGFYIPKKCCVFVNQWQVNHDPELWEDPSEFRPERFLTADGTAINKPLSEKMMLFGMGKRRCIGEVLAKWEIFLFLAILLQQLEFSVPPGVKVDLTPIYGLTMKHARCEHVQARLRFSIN

[6] = molecular target: Cytochrome P450 2C9 (Homo sapiens, UniProt P11712)
Chain of Cytochrome P450 2C9 (P11712 whole entry): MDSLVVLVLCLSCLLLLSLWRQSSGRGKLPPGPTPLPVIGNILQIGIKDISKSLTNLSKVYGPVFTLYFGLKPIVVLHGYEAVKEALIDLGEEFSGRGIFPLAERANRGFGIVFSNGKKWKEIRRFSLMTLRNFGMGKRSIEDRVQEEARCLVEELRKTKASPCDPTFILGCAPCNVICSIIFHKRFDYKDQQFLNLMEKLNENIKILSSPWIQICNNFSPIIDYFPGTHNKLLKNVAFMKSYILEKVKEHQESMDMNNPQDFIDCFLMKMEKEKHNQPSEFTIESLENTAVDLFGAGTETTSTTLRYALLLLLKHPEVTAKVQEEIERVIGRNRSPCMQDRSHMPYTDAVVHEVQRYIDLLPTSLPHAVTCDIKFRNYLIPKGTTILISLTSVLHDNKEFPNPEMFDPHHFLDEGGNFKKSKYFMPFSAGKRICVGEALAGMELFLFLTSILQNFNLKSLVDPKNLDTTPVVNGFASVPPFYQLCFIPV

[7] = insulin promoter down-regulators in MIN6 cells, imaging, high-content screening, mouse beta cells (AID 1628); type: functional
[8] = cytotoxicity in MIN6 insulinoma cells, dose response, cytotoxicity control, cell-based, mouse insulinoma (AID 2122); type: functional;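 further: confirmatory high-throughput counterscreen run to flag cytotoxic compounds; mouse MIN-6 beta cells carrying an insulin promoter eGFP reporter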
[9] = system: INS1; assay: beta cell apoptosis inhibitors, cytokine rescue, dose response, luminescence, retest (AID 449756); type: functional, cell-based; conditions: Rattus norvegicus, INS1;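 further: cell death triggered by IL-1 beta plus TNF-alpha plus IFN-gamma mixture; protective hits raise ATP signal compared with cytokine alone wells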
[10] = NIH-3T3 fibroblast cytotoxicity, dose response, cytotoxicity control, cell-based, fluorescence, Alamar Blue, secondary assay (AID 2327); type: functional;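 further: NIH-3T3 mouse fibroblasts cultured with fluconazole at 8 µg/mL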
[11] = C. albicans growth with fluconazole, confirmation, fluorescence, retest (AID 2467); type: functional, cell-based
[12] = microbe, parasite or virus in culture; type: functional; conditions: Mycobacterium tuberculosis
[13] = molecular target: T4, Protein RecA (Mycobacterium tuberculosis, UniProt P9WHJ3); assay: Fluorescence Cell-Free Homogeneous Dose Retest to Identify Inhibitors of RecA-Intein Splicing Activity. [Related pubchem assays (depositor defined):AID2097, AID2223, AID489010, AID492950]; type: functional
T4 sequence (P9WHJ3 whole entry): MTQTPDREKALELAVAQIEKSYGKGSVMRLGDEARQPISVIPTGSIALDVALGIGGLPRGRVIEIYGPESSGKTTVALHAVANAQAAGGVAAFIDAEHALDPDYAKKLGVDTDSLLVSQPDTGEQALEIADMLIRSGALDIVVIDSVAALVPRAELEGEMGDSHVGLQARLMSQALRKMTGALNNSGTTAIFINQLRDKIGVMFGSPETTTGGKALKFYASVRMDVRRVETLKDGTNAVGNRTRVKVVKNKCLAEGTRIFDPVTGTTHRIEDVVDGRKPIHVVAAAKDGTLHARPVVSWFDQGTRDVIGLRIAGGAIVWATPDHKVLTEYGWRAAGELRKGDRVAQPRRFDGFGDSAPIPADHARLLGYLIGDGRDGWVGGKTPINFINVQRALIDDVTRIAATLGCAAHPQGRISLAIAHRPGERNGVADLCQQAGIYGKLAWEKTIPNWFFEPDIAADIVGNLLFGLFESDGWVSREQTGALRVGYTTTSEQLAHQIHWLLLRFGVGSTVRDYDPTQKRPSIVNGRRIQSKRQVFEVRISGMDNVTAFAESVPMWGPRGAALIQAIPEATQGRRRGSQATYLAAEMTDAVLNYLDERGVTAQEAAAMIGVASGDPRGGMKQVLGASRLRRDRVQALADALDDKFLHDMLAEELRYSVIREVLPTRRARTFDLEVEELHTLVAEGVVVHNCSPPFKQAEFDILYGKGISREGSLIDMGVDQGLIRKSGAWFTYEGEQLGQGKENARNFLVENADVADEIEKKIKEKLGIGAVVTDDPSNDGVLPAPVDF

[14] = molecular target: DNA damage-inducible transcript 3 protein (Mus musculus, UniProt P35639); type: functional, Cricetulus griseus
Chain of DNA damage-inducible transcript 3 protein (P35639 whole entry): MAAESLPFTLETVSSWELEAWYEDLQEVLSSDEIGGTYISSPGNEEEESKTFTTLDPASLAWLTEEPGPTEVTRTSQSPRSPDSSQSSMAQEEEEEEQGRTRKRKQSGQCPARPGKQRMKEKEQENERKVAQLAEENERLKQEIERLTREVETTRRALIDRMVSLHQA

[15] = molecular target: T5, Heat shock factor protein 1 (Mus musculus, UniProt P38532); assay: HSF1 potentiators in luciferase reporter cells, confirmation, cell-based, NIH3T3, luminescence, dose retest (AID 435004); type: functional;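 further: stress induced by proteasome inhibitor MG132 added 30 min after compound; luciferase reporter driven by HSF1 response element in NIH3T3 cells; actives raise luminescence as potentiators of the MG132 stress response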
T5 sequence (P38532 whole entry): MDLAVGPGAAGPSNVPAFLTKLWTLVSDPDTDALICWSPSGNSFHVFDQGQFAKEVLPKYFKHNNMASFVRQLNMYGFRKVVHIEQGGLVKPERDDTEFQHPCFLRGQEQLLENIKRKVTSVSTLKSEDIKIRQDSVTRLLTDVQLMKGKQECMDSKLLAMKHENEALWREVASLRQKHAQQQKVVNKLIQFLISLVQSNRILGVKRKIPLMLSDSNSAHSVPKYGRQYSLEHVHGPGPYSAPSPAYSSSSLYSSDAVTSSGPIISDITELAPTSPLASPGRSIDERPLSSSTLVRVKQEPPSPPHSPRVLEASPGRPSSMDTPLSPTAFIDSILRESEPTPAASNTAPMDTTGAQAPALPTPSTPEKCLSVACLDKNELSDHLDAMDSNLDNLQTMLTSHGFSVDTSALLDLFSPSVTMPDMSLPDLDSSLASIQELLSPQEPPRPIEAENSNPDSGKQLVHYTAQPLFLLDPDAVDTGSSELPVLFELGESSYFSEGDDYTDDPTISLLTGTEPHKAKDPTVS

[16] = molecular target: T6, Replicative DNA helicase DnaB (Mycobacterium tuberculosis, UniProt P9WMR3); assay: DnaB intein splicing inhibitors, dose response, biochemical, cell-free fluorescence (AID 449749); type: functional
T6 sequence (P9WMR3 whole entry): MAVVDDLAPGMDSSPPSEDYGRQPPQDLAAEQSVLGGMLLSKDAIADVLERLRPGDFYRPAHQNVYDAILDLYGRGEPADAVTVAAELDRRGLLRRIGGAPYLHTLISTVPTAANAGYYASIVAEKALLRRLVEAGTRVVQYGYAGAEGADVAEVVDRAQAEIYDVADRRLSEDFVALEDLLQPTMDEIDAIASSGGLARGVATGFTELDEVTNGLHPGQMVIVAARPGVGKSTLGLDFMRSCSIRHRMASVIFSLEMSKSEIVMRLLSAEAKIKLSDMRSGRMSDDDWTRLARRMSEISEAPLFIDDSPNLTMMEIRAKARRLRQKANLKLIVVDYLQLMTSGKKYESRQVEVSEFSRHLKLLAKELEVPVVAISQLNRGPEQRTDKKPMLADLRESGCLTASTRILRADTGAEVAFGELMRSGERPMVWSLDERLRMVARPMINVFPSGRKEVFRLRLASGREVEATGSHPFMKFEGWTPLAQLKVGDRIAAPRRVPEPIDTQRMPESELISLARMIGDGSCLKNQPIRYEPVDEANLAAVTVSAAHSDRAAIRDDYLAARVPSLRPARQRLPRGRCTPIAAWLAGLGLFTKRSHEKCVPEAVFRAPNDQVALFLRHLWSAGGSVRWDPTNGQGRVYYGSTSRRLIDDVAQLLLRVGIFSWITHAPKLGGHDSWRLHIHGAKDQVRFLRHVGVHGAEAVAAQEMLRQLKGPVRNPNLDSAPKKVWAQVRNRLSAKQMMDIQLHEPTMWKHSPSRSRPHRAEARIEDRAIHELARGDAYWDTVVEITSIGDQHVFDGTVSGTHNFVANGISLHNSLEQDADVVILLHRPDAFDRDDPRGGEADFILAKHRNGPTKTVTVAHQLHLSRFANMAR

Chain of Cytochrome P450 3A4 (P08684 whole entry): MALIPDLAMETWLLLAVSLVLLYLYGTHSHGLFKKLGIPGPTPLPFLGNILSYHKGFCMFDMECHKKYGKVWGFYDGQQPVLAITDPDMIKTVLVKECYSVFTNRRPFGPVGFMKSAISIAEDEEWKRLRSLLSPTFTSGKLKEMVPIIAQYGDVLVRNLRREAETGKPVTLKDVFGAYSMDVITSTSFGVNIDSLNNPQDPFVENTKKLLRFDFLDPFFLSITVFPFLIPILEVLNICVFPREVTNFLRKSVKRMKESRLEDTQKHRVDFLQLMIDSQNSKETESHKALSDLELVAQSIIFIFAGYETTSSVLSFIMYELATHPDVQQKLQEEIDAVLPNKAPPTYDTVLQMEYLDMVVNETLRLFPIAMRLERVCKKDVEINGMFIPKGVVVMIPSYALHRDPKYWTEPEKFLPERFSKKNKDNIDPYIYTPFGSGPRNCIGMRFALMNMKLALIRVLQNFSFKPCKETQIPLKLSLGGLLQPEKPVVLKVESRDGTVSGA

Cc1ccccc1C(=O)N1CCN(c2ccc([N+](=O)[O-])c(NCc3ccco3)c2)CC1
AC50 [1]: inconclusive

Cn1c(-c2ccccc2)cnc1NCc1ccccc1
EC50 [2]: 5.31 µM (active) | IC50 [3]: 11.5 µM (active)

Fc1ccc(C(c2ccc(F)cc2)N2CCN(C/C=C\c3ccccc3)CC2)cc1
AC50 [4]: inactive | AC50 [5]: 15.8 µM (inconclusive) (2×) and 25.1 µM (inconclusive) | AC50 [6]: 39.8 µM (inconclusive) and 20 µM (inconclusive) and 15.8 µM (inconclusive) | AC50 [1]: inactive; also recorded: inconclusive

O=[N+]([O-])c1ccccc1N/N=C/c1cccc(O)c1O
IC50 [7]: 2.74 µM (active) | IC50 [8]: 3.75 µM (active)

CC(C)(C)c1ccc(OCc2ccc(C(=O)N/N=C/c3ccc(O)c(O)c3)cc2)cc1
IC50 [7]: 3.14 µM (active) | AC50 [9]: 5.45 µM (active) | EC50 [10]: 2.67 µM (inconclusive) | EC50 [11]: > 38 µM (not active) | IC50 [8]: 1.97 µM (active)

O=C(CCl)N1CCN2C(=O)c3ccccc3C12c1ccc(Cl)cc1 (configuration not stated)
CC50 [12]: 8.94 µM (active) | EC50 [13]: 1.08 µM (active) | Absolute IC50 (CHOP) [14]: 10 µM | EC50 [15]: 15 µM (active) | AC50 [16]: 3.96 µM (active)

COCCCN1CCN(c2nnc3n2-c2sc(Br)cc2C(c2ccccc2Cl)=NC3)CC1.CS(=O)(=O)O
AC50 ([4]; read-out: AC50): 7.08 µM (inconclusive) | AC50 [1]: inconclusive

CC(C)c1nnc(NC(=O)CCC(=O)N2CCN(c3ccccn3)CC2)s1
AC50 ([4]; read-out: AC50): 28.2 µM (inconclusive) | AC50 [6]: 7.08 µM (inconclusive) | AC50 [1]: inconclusive

c1ccc(CN2CCC3(CCc4ccccc43)CC2)cc1
AC50 [5]: 31.6 µM (inconclusive) | AC50 [6]: 39.8 µM (inconclusive) | AC50 [1]: inconclusive
